{
  "source": "patent US20110306554A1",
  "about": "“PEPTIDE CAPABLE OF BINDING TO IMMUNOGLOBULIN” (priority 2009, published 2011)",
  "key": {"[1]": {"tested_on": "Monoclonal antibody cocktail-induced arthritis mice", "test": "Arthritis suppressing effects on arthritis-induced mice, Part 1", "format": "in vivo", "method": "Monoclonal antibody cocktail-induced arthritis mice (BALE/c Cr Slc (SPF)) were used to examine arthritis suppressing effects of a peptide which is indicated as R5 in Example 2. Arthritis was caused by intravenous administration of 2 mg/mouse of an arthritis-inducing monoclonal antibody cocktail and three days later, intraperitoneal administration of 50 μg/mouse of Lipopolysaccharide (LPS). Peptide R5 was intraperitoneally administered at a dose of 10 mg/kg once or twice a day from the day following the LPS administration (day 4) up to day 14. Methotrexate, a positive control drug, was orally administered at a dose of 0.1 mg/kg once a day from day 4. Clinical scores of the extremities were measured on even days from day 0 up to day 14. Under anesthesia, blood was removed with heparin-containing physiological saline, and an ice-cooled, 4% solution of paraformaldehyde was continuously injected to perfusion-fix the whole body. After perfusion-fixation, the knee joints (obtained by cutting at the center of the femur and of the tibia and removing the skin and muscles) and hock joints (from the center of the tibia to the toe tips) of both hind limbs were excised and further fixed by immersion in a 4% solution of paraformaldehyde overnight (4° C.). After that, both knee joints and both hock joints were transferred into 50 mM PBS (4° C.), and then subjected to soft x-ray radiography of the hock joints in two directions (from the internal side and the upper side).\nThe required amount was calculated for the peptide, based on the animal weight. A peptide solution was prepared to make a concentration of 1 mg/ml in a 0.5% methyl cellulose solution, and the prepared peptide solution was cold stored.\nA solution of methotrexate was prepared by weighing 1 mg of methotrexate into an agate mortar, grinding it with a pestle, and then gradually adding a 0.5% methyl cellulose solution to form a suspension and make a concentration of 0.01 mg/ml. […]\nResults of examinations were expressed by mean value±standard error and analyzed using EXSAS (Version 7.1.6, Arm Systex Co., Ltd.). […]"}, "[2]": {"tested_on": "type III allergic (Arthus) reaction-induced rats", "test": "Immune-complex disease suppression in type III allergic (Arthus) reaction-induced rats, Part 1", "format": "in vivo", "conditions": "intraperitoneal administration, 10 or 100 mg/kg", "method": "Using sixty-four 7-week-old male Slc:Wistar rats, examinations were made on peptides R1, R2, and R5, in two series of examinations, each using a different method of administration (intraperitoneal administration and tail vein administration). Acclimation was carried out by giving normal solid chow CRF-1 for a period of 9 days or longer. The back of the animals was shaved on the day prior to administration, and a mixed solution of OVA and Evans blue dye was administered into the tail vein on the day of administration. Each peptide solution was administered intraperitoneally or into the tail vein 30 minutes or 50 minutes after the administration of the mixed solution of OVA and Evans blue dye, respectively. For intracutaneous administration of an anti-OVA solution, […] was intracutaneously administered in the back of animals at a dose of 0.1 ml/site 30 minutes or 10 minutes after the administration of the tested substance in the case of intraperitoneal or intravenous administration, respectively, so as to generate a local Arthus reaction. After the reaction was allowed to be generated for 4 hours, the animals were euthanized, the blood was removed thoroughly, and then the dorsal skin was exfoliated. The Arthus reaction sites on the exfoliated skin were punched out, and the Evans blue dye was extracted from the punched skin overnight. The amount of dye leakage was quantified by measuring absorbance for the Evans blue dye with a spectrophotometer and using a calibration curve (see, H. Okamoto, Y. Iwahisa, and M. Terasawa, “Suppression of the Arthus reaction by Y-24180, a potent and specific antagonist of platelet-activating factor”, Agents Actions, 35:149-158 (1992), for experimental procedures used in Example 4).\nA predetermined amount of each peptide (peptides R1, R2, and R5) was dissolved in physiological saline to make a 20 mg/ml solution. A 2 mg/ml solution was prepared by diluting the 20 mg/ml solution 10-fold with physiological saline. A 5 mg/ml solution was prepared by dissolving each peptide in a predetermined amount in physiological saline to make a prepared solution.\nA mixed solution of OVA and Evans blue dye was administered into the tail vein at a dose of 2 ml/kg. Each peptide solution was administered intraperitoneally or into the tail vein 30 minutes or 50 minutes after the administration of the mixed solution of OVA and Evans blue dye, respectively. For intracutaneous administration of an anti-OVA solution, […] was intracutaneously administered in the back of animals at a dose of 0.1 mL/site 30 minutes or 10 minutes after the administration of the tested substance in the case of intraperitoneal or intravenous administration, respectively, so as to generate a local Arthus reaction. Intracutaneous administration was conducted at 2 sites for PBS and at 2 sites for the anti-OVA solution per animal. After the reaction was allowed to be generated for 4 hours, the animals were euthanized by decapitation under ether anesthesia, the blood was removed thoroughly, and then the dorsal skin was exfoliated. The Arthus reaction sites on the exfoliated skin were punched out and subjected to dye extraction.\nSeveral cuttings were made in the skin strips that were punched out with a punch. […] The amount of dye leakage was calculated from a calibration curve of known amounts of the dye.\nThe mean value (mean)±standard deviation (SD) for each group was calculated with body-weight measurements and amounts of dye leakage. […]"}},
  "note": "Entries after “also recorded” stand apart in the source; their conditions may differ.",
  "data": [
    {"sequence": "STGKFTCKVPGLYYF (Immunoglobulin binding peptide) [R5]", "values": [
      {"measurement": "difference in effectiveness between once-a-day and twice-a-day administration", "setting": "[1]; 10 mg/kg intraperitoneal", "value": "no significant difference"},
      {"measurement": "degree of arthritis suppression compared with methotrexate", "setting": "[1]; 10 mg/kg intraperitoneal vs methotrexate 0.1 mg/kg orally once a day", "value": "higher degree of arthritis suppression than that of methotrexate"},
      {"measurement": "arthritis suppressing effect (clinical score)", "setting": "[1]; 10 mg/kg intraperitoneal, once or twice a day, day 4 to day 14", "value": "exhibited arthritis suppressing effects; also recorded: arthritis was suppressed"},
      {"measurement": "effect of immune-complex disease suppression (dye leakage)", "setting": "[2]", "value": "clear and satisfactory effects of immune-complex disease suppression; also recorded: suppressed"}
    ]}
  ]
}
